From US20260242419A1, “A CYCLIC PEPTIDE FOR TRAPPING INTERLEUKIN-1 BETA” (Merck Sharp & Dohme LLC, priority 2023, published 2026)
Starred links: 1 amine or outer side, 2 acyl side, 3 side chain; linkers in the order of their positions; H or OH if unused. Non-standard residues stand in square brackets, D forms with d. Residues, ends and D or L forms follow the SMILES beside them. Trp(βS-Me,4-F) = C[C@@H](c1c[nH]c2cccc(F)c12)[C@H](N)C(=O)O; Bip(4'-COOH) = N[C@@H](Cc1ccc(-c2ccc(C(=O)O)cc2)cc1)C(=O)O; Phe(4-(4-pyridyl)) = N[C@@H](Cc1ccc(-c2ccncc2)cc1)C(=O)O; dPro(4R-Bzl(4-F)) = O=C(O)[C@H]1C[C@@H](Cc2ccc(F)cc2)CN1; dPro(3S-(4-F-Bn)) = O=C(O)[C@@H]1NCC[C@@H]1Cc1ccc(F)cc1; X31 = O=C(O)c1ccc([C@@H](O)[C@H](N[*:1])C(=O)[*:2])cc1; X27 = COc1ncc(-c2ccc(C[C@H](N[*:1])C(=O)[*:2])cc2)cn1; X32 = Cn1cnc(-c2ccc(C[C@H](N[*:1])C(=O)[*:2])cc2)c1; X12 = Cn1ccnc1-c1ccc(C[C@H](N[*:1])C(=O)[*:2])cc1; X40 = O=C([C@H](Cc1ccc(-c2cncnc2)cc1)N[*:1])[*:2]; X41 = O=C([C@@H](N[*:1])[C@@H](O)c1ccncc1)[*:2]; Ala(pyrimidin-5-yl) = N[C@@H](Cc1cncnc1)C(=O)O; Phe(4-COOH) = N[C@@H](Cc1ccc(C(=O)O)cc1)C(=O)O; X30 = O=C([C@@H](N[*:1])[C@H](O)c1ccncc1)[*:2]; X44 = CC(=O)N1CCN(C[C@H](N[*:1])C(=O)[*:2])CC1; Pro(cis-4-F) = O=C(O)[C@@H]1C[C@H](F)CN1; Phe(4-F) = N[C@@H](Cc1ccc(F)cc1)C(=O)O; d(αMeD) = C[C@@](N)(CC(=O)O)C(=O)O; 4Pal = N[C@@H](Cc1ccncc1)C(=O)O; Dab = NCC[C@H](N)C(=O)O; Aib = CC(C)(N)C(=O)O

Each compound was assayed against T1, IL-1β (Homo sapiens, UniProt P01584) (assay: IL-6 assay in MRC5 cells: inhibition of IL-1β induced IL-6 secretion (AlphaLISA)). Conditions: inhibition of IL-1β induced IL-6 secretion in MRC5 cells; compound pre-incubated 1 hour with recombinant human IL-1β; read-out: MRC5 IC50.
T1 construct: purchased BioLegend 579404
T1 sequence (P01584 117-269): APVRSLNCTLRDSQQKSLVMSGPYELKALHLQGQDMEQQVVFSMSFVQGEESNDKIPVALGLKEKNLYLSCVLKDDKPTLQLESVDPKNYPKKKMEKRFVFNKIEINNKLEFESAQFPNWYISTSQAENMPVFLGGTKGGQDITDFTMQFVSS
Format: cell-based
In short: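 Compound was pre-incubated 1 h at ambient temperature with recombinant human IL-1β at 2λ EC80 before adding human lung fibroblast MRC5 cells (3000/well) in EMEM with 0.025% BSA. After overnight culture at 37 °C, 5% CO2, secreted IL-6 in conditioned medium was measured by AlphaLISA; IC50 from 4-parameter logistic fits.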
With `CC(=O)N1CCN(C[C@@H]2NC(=O)C(C)(C)NC(=O)[C@H](Cc3c[nH]c4ccccc34)NC(=O)[C@H](CCC(=O)O)NC(=O)C(C)(C)NC(=O)[C@H]([C@@H](C)c3c[nH]c4cccc(F)c34)NC(=O)[C@@H]3C[C@H](F)CN3C(=O)CNC(=O)[C@H](Cc3ccc(C(=O)O)cc3)NC(=O)[C@H](Cc3ccncc3)NC(=O)[C@H](Cc3ccc(-c4ccc(C(=O)O)cc4)cc3)NC(=O)[C@H]3C[C@@H](Cc4ccc(F)cc4)CN3C(=O)CNC(=O)[C@H](CO)NC(=O)[C@H](CCC(N)=O)NC2=O)CC1` [Example 271] (cyclo([Bip(4'-COOH)][4Pal][Phe(4-COOH)]G[Pro(cis-4-F)][Trp(βS-Me,4-F)][Aib]EW[Aib][X44]QSG[dPro(4R-Bzl(4-F))])) the IC50 was 0.023 nM.
In the case of `C[C@@H](c1c[nH]c2cccc(F)c12)[C@@H]1NC(=O)[C@@H]2C[C@H](F)CN2C(=O)CNC(=O)[C@H](Cc2ccc(C(=O)O)cc2)NC(=O)[C@H](Cc2ccncc2)NC(=O)[C@H](Cc2ccc(-c3ccc(C(=O)O)cc3)cc2)NC(=O)[C@H]2C[C@@H](Cc3ccc(F)cc3)CN2C(=O)CNC(=O)[C@H](CCN)NC(=O)[C@H](CCC(N)=O)NC(=O)[C@H]([C@@H](O)c2ccncc2)NC(=O)C(C)(C)NC(=O)[C@H](Cc2c[nH]c3ccccc23)NC(=O)[C@H](CO)NC(=O)C(C)(C)NC1=O` [Example 272] (cyclo([Bip(4'-COOH)][4Pal][Phe(4-COOH)]G[Pro(cis-4-F)][Trp(βS-Me,4-F)][Aib]SW[Aib][X41]Q[Dab]G[dPro(4R-Bzl(4-F))])), the IC50 is reported as 0.018 nM.
`C[C@@H](c1c[nH]c2cccc(F)c12)[C@@H]1NC(=O)[C@@H]2C[C@H](F)CN2C(=O)CNC(=O)[C@H](Cc2ccc(C(=O)O)cc2)NC(=O)[C@H](Cc2ccncc2)NC(=O)[C@H](Cc2ccc(-c3ccc(C(=O)O)cc3)cc2)NC(=O)[C@H]2C[C@@H](Cc3ccc(F)cc3)CN2C(=O)CNC(=O)[C@H](CCN)NC(=O)[C@H](CCC(N)=O)NC(=O)[C@H]([C@H](O)c2ccncc2)NC(=O)C(C)(C)NC(=O)[C@H](Cc2c[nH]c3ccccc23)NC(=O)[C@H](CO)NC(=O)C(C)(C)NC1=O` [Example 273] (cyclo([Bip(4'-COOH)][4Pal][Phe(4-COOH)]G[Pro(cis-4-F)][Trp(βS-Me,4-F)][Aib]SW[Aib][X30]Q[Dab]G[dPro(4R-Bzl(4-F))])) showed an IC50 of 0.013 nM.
With `C[C@@H](c1c[nH]c2cccc(F)c12)[C@@H]1NC(=O)[C@@H]2C[C@H](F)CN2C(=O)CNC(=O)[C@H](Cc2ccc(C(=O)O)cc2)NC(=O)[C@H]([C@H](O)c2ccncc2)NC(=O)[C@H](Cc2ccc(-c3ccc(C(=O)O)cc3)cc2)NC(=O)[C@H]2C[C@@H](Cc3ccc(F)cc3)CN2C(=O)CNC(=O)[C@H](CCN)NC(=O)[C@H](CCC(N)=O)NC(=O)[C@H](Cc2cncnc2)NC(=O)C(C)(C)NC(=O)[C@H](Cc2c[nH]c3ccccc23)NC(=O)[C@H](CO)NC(=O)C(C)(C)NC1=O` [Example 274] (cyclo([Bip(4'-COOH)][X30][Phe(4-COOH)]G[Pro(cis-4-F)][Trp(βS-Me,4-F)][Aib]SW[Aib][Ala(pyrimidin-5-yl)]Q[Dab]G[dPro(4R-Bzl(4-F))])) the IC50 was 0.026 nM.
Compound `C[C@@H](c1c[nH]c2cccc(F)c12)[C@@H]1NC(=O)[C@@H]2C[C@H](F)CN2C(=O)CNC(=O)[C@H]([C@H](O)c2ccc(C(=O)O)cc2)NC(=O)[C@H](Cc2ccncc2)NC(=O)[C@H](Cc2ccc(-c3ccc(C(=O)O)cc3)cc2)NC(=O)[C@H]2C[C@@H](Cc3ccc(F)cc3)CN2C(=O)CNC(=O)[C@H](CCN)NC(=O)[C@H](CCC(N)=O)NC(=O)[C@H](Cc2cncnc2)NC(=O)C(C)(C)NC(=O)[C@H](Cc2c[nH]c3ccccc23)NC(=O)[C@H](CO)NC(=O)C(C)(C)NC1=O` [Example 275] (cyclo([Bip(4'-COOH)][4Pal][X31]G[Pro(cis-4-F)][Trp(βS-Me,4-F)][Aib]SW[Aib][Ala(pyrimidin-5-yl)]Q[Dab]G[dPro(4R-Bzl(4-F))])) has an IC50 of 0.018 nM.
`C[C@@H](c1c[nH]c2cccc(F)c12)[C@@H]1NC(=O)[C@@H]2C[C@H](F)CN2C(=O)CNC(=O)[C@H](Cc2ccc(C(=O)O)cc2)NC(=O)[C@H](Cc2ccncc2)NC(=O)[C@H](Cc2ccc(-c3ccc(C(=O)O)cc3)cc2)NC(=O)[C@H]2C[C@@H](Cc3ccc(F)cc3)CN2C(=O)CNC(=O)[C@H](CCN)NC(=O)[C@H](CCC(N)=O)NC(=O)[C@H](Cc2c[nH]cn2)NC(=O)C(C)(C)NC(=O)[C@H](Cc2c[nH]c3ccccc23)NC(=O)[C@H](CCC(=O)O)NC(=O)C(C)(C)NC1=O` [Example 276] (cyclo([Bip(4'-COOH)][4Pal][Phe(4-COOH)]G[Pro(cis-4-F)][Trp(βS-Me,4-F)][Aib]EW[Aib]HQ[Dab]G[dPro(4R-Bzl(4-F))])) was tested, and the IC50 was 0.017 nM.
Work on `C[C@@H](c1c[nH]c2cccc(F)c12)[C@@H]1NC(=O)[C@@H]2C[C@H](F)CN2C(=O)CNC(=O)[C@H](Cc2ccc(C(=O)O)cc2)NC(=O)[C@H](Cc2ccncc2)NC(=O)[C@H](Cc2ccc(F)cc2)NC(=O)[C@H]2[C@@H](Cc3ccc(F)cc3)CCN2C(=O)CNC(=O)[C@H](CCN)NC(=O)[C@H](CCC(N)=O)NC(=O)[C@H](Cc2cncnc2)NC(=O)[C@@](C)(CC(=O)O)NC(=O)[C@H](Cc2c[nH]c3ccccc23)NC(=O)[C@H](CO)NC(=O)C(C)(C)NC1=O` [Example 277] (cyclo([Phe(4-F)][4Pal][Phe(4-COOH)]G[Pro(cis-4-F)][Trp(βS-Me,4-F)][Aib]SW[d(αMeD)][Ala(pyrimidin-5-yl)]Q[Dab]G[dPro(3S-(4-F-Bn))])) yielded an IC50 of 0.023 nM.
Work on `C[C@@H](c1c[nH]c2cccc(F)c12)[C@@H]1NC(=O)[C@@H]2C[C@H](F)CN2C(=O)CNC(=O)[C@H](Cc2ccc(C(=O)O)cc2)NC(=O)[C@H](Cc2ccncc2)NC(=O)[C@H](Cc2ccc(O)cc2)NC(=O)[C@H]2[C@@H](Cc3ccc(F)cc3)CCN2C(=O)CNC(=O)[C@H](CCN)NC(=O)[C@H](CCC(N)=O)NC(=O)[C@H](Cc2cncnc2)NC(=O)[C@@](C)(CC(=O)O)NC(=O)[C@H](Cc2c[nH]c3ccccc23)NC(=O)[C@H](CO)NC(=O)C(C)(C)NC1=O` [Example 278] (cyclo(Y[4Pal][Phe(4-COOH)]G[Pro(cis-4-F)][Trp(βS-Me,4-F)][Aib]SW[d(αMeD)][Ala(pyrimidin-5-yl)]Q[Dab]G[dPro(3S-(4-F-Bn))])) yielded an IC50 of 0.021 nM.
Work on `C[C@@H](c1c[nH]c2cccc(F)c12)[C@@H]1NC(=O)[C@@H]2C[C@H](F)CN2C(=O)CNC(=O)[C@H](Cc2ccc(C(=O)O)cc2)NC(=O)[C@H](Cc2ccncc2)NC(=O)[C@H](Cc2ccc(-c3cn(C)cn3)cc2)NC(=O)[C@H]2[C@@H](Cc3ccc(F)cc3)CCN2C(=O)CNC(=O)[C@H](CCN)NC(=O)[C@H](CCC(N)=O)NC(=O)[C@H](Cc2cncnc2)NC(=O)[C@@](C)(CC(=O)O)NC(=O)[C@H](Cc2c[nH]c3ccccc23)NC(=O)[C@H](CO)NC(=O)C(C)(C)NC1=O` [Example 279] (cyclo([X32][4Pal][Phe(4-COOH)]G[Pro(cis-4-F)][Trp(βS-Me,4-F)][Aib]SW[d(αMeD)][Ala(pyrimidin-5-yl)]Q[Dab]G[dPro(3S-(4-F-Bn))])) yielded an IC50 of 0.013 nM.
`C[C@@H](c1c[nH]c2cccc(F)c12)[C@@H]1NC(=O)[C@@H]2C[C@H](F)CN2C(=O)CNC(=O)[C@H](Cc2ccc(C(=O)O)cc2)NC(=O)[C@H](Cc2ccncc2)NC(=O)[C@H](Cc2ccc(-c3nccn3C)cc2)NC(=O)[C@H]2[C@@H](Cc3ccc(F)cc3)CCN2C(=O)CNC(=O)[C@H](CCN)NC(=O)[C@H](CCC(N)=O)NC(=O)[C@H](Cc2cncnc2)NC(=O)[C@@](C)(CC(=O)O)NC(=O)[C@H](Cc2c[nH]c3ccccc23)NC(=O)[C@H](CO)NC(=O)C(C)(C)NC1=O` [Example 280] (cyclo([X12][4Pal][Phe(4-COOH)]G[Pro(cis-4-F)][Trp(βS-Me,4-F)][Aib]SW[d(αMeD)][Ala(pyrimidin-5-yl)]Q[Dab]G[dPro(3S-(4-F-Bn))])) gave an IC50 of 0.016 nM.
In the case of `COc1ncc(-c2ccc(C[C@@H]3NC(=O)[C@H]4[C@@H](Cc5ccc(F)cc5)CCN4C(=O)CNC(=O)[C@H](CCN)NC(=O)[C@H](CCC(N)=O)NC(=O)[C@H](Cc4cncnc4)NC(=O)[C@@](C)(CC(=O)O)NC(=O)[C@H](Cc4c[nH]c5ccccc45)NC(=O)[C@H](CO)NC(=O)C(C)(C)NC(=O)[C@H]([C@@H](C)c4c[nH]c5cccc(F)c45)NC(=O)[C@@H]4C[C@H](F)CN4C(=O)CNC(=O)[C@H](Cc4ccc(C(=O)O)cc4)NC(=O)[C@H](Cc4ccncc4)NC3=O)cc2)cn1` [Example 281] (cyclo([X27][4Pal][Phe(4-COOH)]G[Pro(cis-4-F)][Trp(βS-Me,4-F)][Aib]SW[d(αMeD)][Ala(pyrimidin-5-yl)]Q[Dab]G[dPro(3S-(4-F-Bn))])), the IC50 is reported as 0.012 nM.
For `C[C@@H](c1c[nH]c2cccc(F)c12)[C@@H]1NC(=O)[C@@H]2C[C@H](F)CN2C(=O)CNC(=O)[C@H](Cc2ccc(C(=O)O)cc2)NC(=O)[C@H](Cc2ccncc2)NC(=O)[C@H](Cc2ccc(-c3cncnc3)cc2)NC(=O)[C@H]2[C@@H](Cc3ccc(F)cc3)CCN2C(=O)CNC(=O)[C@H](CCN)NC(=O)[C@H](CCC(N)=O)NC(=O)[C@H](Cc2cncnc2)NC(=O)[C@@](C)(CC(=O)O)NC(=O)[C@H](Cc2c[nH]c3ccccc23)NC(=O)[C@H](CO)NC(=O)C(C)(C)NC1=O` [Example 282] (cyclo([X40][4Pal][Phe(4-COOH)]G[Pro(cis-4-F)][Trp(βS-Me,4-F)][Aib]SW[d(αMeD)][Ala(pyrimidin-5-yl)]Q[Dab]G[dPro(3S-(4-F-Bn))])), the IC50 was 0.014 nM.
Compound `C[C@@H](c1c[nH]c2cccc(F)c12)[C@@H]1NC(=O)[C@@H]2C[C@H](F)CN2C(=O)CNC(=O)[C@H](Cc2ccc(C(=O)O)cc2)NC(=O)[C@H](Cc2ccncc2)NC(=O)[C@H](Cc2ccc(-c3ccncc3)cc2)NC(=O)[C@H]2[C@@H](Cc3ccc(F)cc3)CCN2C(=O)CNC(=O)[C@H](CCN)NC(=O)[C@H](CCC(N)=O)NC(=O)[C@H](Cc2cncnc2)NC(=O)[C@@](C)(CC(=O)O)NC(=O)[C@H](Cc2c[nH]c3ccccc23)NC(=O)[C@H](CO)NC(=O)C(C)(C)NC1=O` [Example 283] (cyclo([Phe(4-(4-pyridyl))][4Pal][Phe(4-COOH)]G[Pro(cis-4-F)][Trp(βS-Me,4-F)][Aib]SW[d(αMeD)][Ala(pyrimidin-5-yl)]Q[Dab]G[dPro(3S-(4-F-Bn))])) has an IC50 of 0.016 nM.
